Results reported in patent US20260364061A1, “COMPOUNDS, COMPOSITIONS, AND METHODS FOR THE TREATMENT OF CANCER” (Ohio State Innovation Foundation, priority 2023, published 2026).
Like-named read-outs stand apart in the source and are kept apart here.

What was measured:
[1] = tested on: Empty Vector (EV) dedifferentiated liposarcoma cells (cell lines Lipo863 and Lipo815); test: Migration assay, Empty Vector (EV) control cells; assay type: cell-based, human; conditions: for reduction in cell migration, Empty Vector (EV): 24 hours of treatment, EV cells, non-cytotoxic concentration, vs control group, FIG. 16A-16B
Method: (§1) FIG. 16A-16B. Evaluation of the effect of IWS1 inhibitors identified from in silico screening on the migration of cancer cells. […] The migration assay was performed using two cell groups: Empty Vector (EV, Negative control) and shIWS1 (IWS1 knockdown).
FIG. 17. Evaluation of the dose-dependent effect of IWS1 inhibitors identified from in silico screening on the migration of cancer cells. Cell migration in vitro represents to some extent the ability of cells to metastasize in vivo.
(§2) To evaluate these compounds, we used dedifferentiated cell lines Lipo863 and Lipo815 as an in-vitro model of dedifferentiated liposarcoma (DDLPS). […] FIG. 15A-15C. Using these candidates as potential pharmacological inhibitors of IWS1, we expected to reproduce/mimic phenotypical changes specific for lentiviral IWS1 knockdown. […] We performed a migration assay to assess the ability of cells to migrate after 24 hours of treatment compared to intact cells (EV) as well as IWS1 knockdown cells (shIWS1). Using drug concentrations that would not affect the viability of the cells, we sought to evaluate predominantly the migratory ability of cells. […] FIG. 17.

[2] = tested on: shIWS1 (IWS1 knockdown) dedifferentiated liposarcoma cells (cell lines Lipo863 and Lipo815); test: Migration assay, IWS1 knockdown (shIWS1) cells; assay type: cell-based, human; conditions: 24 hours of treatment, vs non-treatment control
Method: as §1, §2

Lipo863 cells = test: Spheroid formation in matrigel extracellular matrix scaffold; assay type: cell-based, human; conditions: 14-day treatment; FIG. 19
Description: FIG. 19. To evaluate the impact of IWS1 inhibition on spheroid formation, a matrigel extracellular matrix scaffold was employed.
To evaluate the impact of IWS1 inhibition on spheroid formation, a matrigel extracellular matrix scaffold was employed.

unresectable LPS = conditions: patients with unresectable LPS; cited from earlier work
IWS1/Spt6 complex = test: Co-immunoprecipitation of the IWS1/Spt6 complex from treated cells; assay type: cell-based, human; conditions: Co-IP after 48 hours of treatment; vs DMSO negative control
Description: The Co-IP method allowed us to analyze IWS1/Spt6 protein complex directly and assess the efficiency of the drug candidates to disrupt the complex.

IWS1 = target: T1, IWS1 (Homo sapiens, UniProt Q96ST2); test: Nuclear/cytosolic fraction analysis of IWS1 distribution; assay type: cell-based; conditions: 20 uM; 48-hour treatment; DMSO negative control ratio 0.75
T1 construct: document uses human liposarcoma lines; nuclear/cytosolic fractionation
Description: The binding of the small molecule to IWS1 may cause the redistribution of the latter in the cell (cytoplasmic vs nuclear locations) due to conformational changes of the protein or disruption of its functions. To characterize the effect of a drug candidate on the distribution of IWS1 in the cell, we performed fraction analysis by separating cytoplasmic and nuclear proteins.

[3] = tested on: invasive DDLPS cell line Lipo246; test: Invasion of DDLPS cells; assay type: cell-based; conditions: 48 h, read-out: decrease in invasion ability
Description: FIG. 18. Evaluation of the effect of IWS1 inhibitors identified from in silico screening on the […] of cancer cells. Invasiveness is important parameter used to characterize the aggressive behavior of cancer cells.
Invasiveness is important parameter used to characterize the aggressive behavior of cancer cells.

[4] = tested on: dedifferentiated liposarcoma (DDLPS) cell line Lipo863; test: Cell cytotoxicity (MTS) assay; conditions: Homo sapiens

SMILES: CN1CCC(=C2c3ccccc3C=Cc3ccccc32)CC1 [Cyproheptadine]
- reduction in cell migration, Empty Vector (EV) [1]: 24%
- reduction in migration, shIWS1 cells [2]: no significant reduction

SMILES: Clc1ccc2c(c1)CCc1cccnc1C2=C1CCNCC1 [Desloratadine]
- spheroid formation: number of spheroids (Lipo863 cells): significantly reduced
- spheroid formation: size of spheroids (Lipo863 cells): significantly reduced

SMILES: COc1cccc2c1C(=O)c1c(O)c3c(c(O)c1C2=O)C[C@@](O)(C(=O)CO)C[C@@H]3O[C@H]1C[C@H](N)[C@H](O)[C@H](C)O1 [Doxorubicin]
- 5-year survival (unresectable LPS): 20-30%
- response rate (unresectable LPS): 25%

SMILES: CN1CCC(=C2c3ccccc3CC(=O)c3sccc32)CC1 [Ketotifen]
- decrease in migration ability (dose-dependent) ([1]; 1-10 uM solutions, FIG. 17): 18-44%
- reduction in cell migration, Empty Vector (EV) [1]: 18%
- reduction in migration, shIWS1 cells [2]: no significant reduction
- decrease in amount of IWS1/Spt6 complex pulled down (IWS1/Spt6 complex): more than 50%
- increase of ratio between nuclear and cytosolic fractions of IWS1 (IWS1): 1.1
- inhibition at 20 µM [3]: 30%
- spheroid formation: number of spheroids (Lipo863 cells): significantly reduced
- spheroid formation: size of spheroids (Lipo863 cells): significantly reduced
- IC50 ([4]; read-out: IC50 (cell cytotoxicity assay)): 63 µM
- IC50 ([4]; read-out: IC50 (the concentration at which the drug kills 50% of cancer cells)): 63 µM
